# Data taken from publication PMC8220418, “A fragment-based approach to assess the ligandability of ArgB, ArgC, ArgD and ArgF in the L-arginine biosynthetic pathway of Mycobacterium tuberculosis” (Computational and Structural Biotechnology Journal, 2021).
# Read-outs that look alike come from different tables or passages of the source.
# How the values were obtained:
# [1] = biological target: T1, ArgB (Mycobacterium tuberculosis, UniProt P9WQ01); experiment: Differential scanning fluorimetry (DSF) fragment screening against ArgB; type: binding; conditions: known ligands (positive controls); 1 mM for ATP, N-acetyl-glutamate, L-arginine
# Procedure: (§1) Fragment screening was carried out in a 96-well PCR plate using a CFX Connect Real-time PCR Detection System (Bio-Rad) for DSF. For ArgB, each 25 μL reaction mixture contained 10 µM ArgB, 100 mM HEPES (pH 7.5), 200 mM NaCl, 5x SYPRO Orange, 5% DMSO (v/v), and fragments at 5 mM. For ArgF each 25 μL reaction mixture contained 5 µM ArgF, 25 mM Tris-HCl (pH 8.0), 150 mM NaCl, 5x SYPRO Orange dye, 5 mM fragments and 5% DMSO (v/v). For ArgC and ArgD, the 25 μL reaction volume consisted of the following: 2.5 μM ArgC/5 μM ArgD, 100 mM sodium phosphate pH 7, 200 mM NaCl, 5x SYPRO Orange, and 5 mM fragments (960 fragment library). The protocol implemented increased temperature by 0.5 °C after every 30 s, going from 25 °C to 95 °C and measuring SYPRO Orange fluorescence for each temperature cycle. The melt curve RFU (relative fluorescence units) and derivative -d(RFU)/dT values were analysed and plotted using a macros-enabled Excel Workbook: the minima of the melt curves were recorded as the melting temperature (Tm) of the enzymes in the presence of each fragment. The Tm of the reference control (protein in the presence of DMSO) was subtracted from all the readings to calculate ΔTm.
# [2] = biological target: T1, ArgB; experiment: biochemical; type: binding; conditions: ITC Kd, six-site sequential binding model, 25 °C, sequential binding, six-site model
# [3] = biological target: T1, ArgB; experiment: ArgB enzymatic assay (ADP release coupled to NADH oxidation, pyruvate kinase/lactate dehydrogenase); type: biochemical; conditions: IC50, 0.5 µM ArgB, 0.3 mM ATP, 1.25 mM NAG, 10% DMSO
# Procedure: ArgB activity was assessed by a colorimetric assay that followed the release of ADP by measuring the oxidation of NADH at 340 nm, for 30 min, in the presence of pyruvate kinase and lactate dehydrogenase in a PHERAstar plate-reader (BMG-Labtech). […]. Inhibitors were also individually screened against the coupled enzymes to eliminate any compounds interfering with the other assay components. Competition assays were performed in the same conditions using 0.3 mM of ATP or NAG and varying the other substrate concentration.
# [4] = test system: M. tuberculosis H37Rv; experiment: microbe, parasite or virus in culture; type: cell-based, Mycobacterium tuberculosis
# [5] = test system: M. tuberculosis ΔargB-c; experiment: microbe, parasite or virus in culture; type: cell-based, Mycobacterium tuberculosis
# [6] = test system: M. tuberculosis MDR strain V2475; experiment: microbe, parasite or virus in culture; type: cell-based, Mycobacterium tuberculosis; conditions: Mycobacterium tuberculosis
# [7] = biological target: ArgF (Mycobacterium tuberculosis, UniProt P9WIT9); experiment: biochemical; type: binding; conditions: natural ligands at 1 mM
# Chain of ArgF (P9WIT9 whole entry, the tested form may be a part): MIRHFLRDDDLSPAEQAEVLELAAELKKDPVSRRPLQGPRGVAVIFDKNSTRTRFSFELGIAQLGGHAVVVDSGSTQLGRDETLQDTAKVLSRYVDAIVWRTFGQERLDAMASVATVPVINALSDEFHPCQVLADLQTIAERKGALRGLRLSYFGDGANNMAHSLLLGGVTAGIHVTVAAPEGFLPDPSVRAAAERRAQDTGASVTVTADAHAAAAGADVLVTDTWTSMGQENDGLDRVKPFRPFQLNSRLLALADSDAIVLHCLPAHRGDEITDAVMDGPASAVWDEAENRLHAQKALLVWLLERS
# Procedure: Fragment screening was carried out in a 96-well PCR plate using a CFX Connect Real-time PCR Detection System (Bio-Rad) for DSF. […] For ArgF each 25 μL reaction mixture contained 5 µM ArgF, 25 mM Tris-HCl (pH 8.0), 150 mM NaCl, 5x SYPRO Orange dye, 5 mM fragments and 5% DMSO (v/v). […] The protocol implemented increased temperature by 0.5 °C after every 30 s, going from 25 °C to 95 °C and measuring SYPRO Orange fluorescence for each temperature cycle. The melt curve RFU (relative fluorescence units) and derivative -d(RFU)/dT values were analysed and plotted using a macros-enabled Excel Workbook: the minima of the melt curves were recorded as the melting temperature (Tm) of the enzymes in the presence of each fragment. The Tm of the reference control (protein in the presence of DMSO) was subtracted from all the readings to calculate ΔTm.
# [8] = biological target: T2, ArgC (Mycobacterium tuberculosis, UniProt P9WPZ9); experiment: Differential scanning fluorimetry (DSF) fragment screening against ArgC; type: binding; conditions: for DSF ΔTm: 1 mM co-factor, average across all DSF runs; for ΔTm at 5000 µM: fragments at 5 mM, 2.5 μM ArgC
# T2 sequence (P9WPZ9 whole entry, the tested form may be a part): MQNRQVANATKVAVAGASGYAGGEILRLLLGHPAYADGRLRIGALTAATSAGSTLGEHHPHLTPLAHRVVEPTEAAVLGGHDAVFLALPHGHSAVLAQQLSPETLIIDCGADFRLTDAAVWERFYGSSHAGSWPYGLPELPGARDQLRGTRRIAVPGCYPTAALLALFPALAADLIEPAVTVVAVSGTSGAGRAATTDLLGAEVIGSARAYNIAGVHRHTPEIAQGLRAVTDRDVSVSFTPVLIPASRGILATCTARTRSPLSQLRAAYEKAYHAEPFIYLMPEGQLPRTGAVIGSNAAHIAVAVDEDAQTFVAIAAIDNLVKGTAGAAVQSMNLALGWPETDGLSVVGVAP
# Procedure: as §1
# [9] = biological target: T2, ArgC; experiment: Surface plasmon resonance with immobilised ArgC; type: binding
# Procedure: Low molecular weight (LMW) screening with the DSF fragment hits was carried out using the T200 Biacore instrument (GE Healthcare Life Sciences). A series S CM5 sensor chip (GE Healthcare Life Sciences) was used for the immobilisation of ArgC on the carboxymethylated dextran matrix through amine coupling. A 25 μg/mL ArgC dilution was prepared in the optimal coupling buffer (sodium acetate pH 5), and immobilisation was performed by manual instructions. The immobilised ArgC was tested using dilution series (19 μM to 2.5 mM) of NADP^+ and NADPH. 50 mM fragment DMSO stocks were used to prepare 1 mM dilutions in the SPR buffer consisting of 10 mM sodium phosphate pH 7.0, 150 mM NaCl and 2% DMSO (v/v). Each NADP^+/NADPH and fragment dilution was injected once at a flow rate of 30 μL/min for a contact time of 30 s, SPR Running buffer (10 mM sodium phosphate pH 7.0 and 150 mM NaCl) was passed for 320 s at the same flow rate, and 50% DMSO v/v (diluted in SPR running buffer) was injected at the end of the cycle to remove undissociated analyte. Solvent correction was carried out to account for DMSO mismatch between the analyte dilutions and the SPR running buffer.
# The fragment hits obtained previously were injected at a concentration of 1 mM. The sensorgrams for all the analytes were inspected visually to exclude fragments with either no discernible response or a “sticky” profile from further analysis (representative sensorgrams for fragment binders are shown in Fig. S2a and b). The binding level was calculated using the T200 software and adjusted for molecular weights of the analytes (Fig. S2c and d). For ArgC, 22 fragments with a binding level response ≥20 RU were shortlisted, whereas in the case of ArgD, 20 fragments with a response ≥10 RU were shortlisted for crystallographic validation. Fragments were thereafter described either as SPR ‘positive’ or ‘negative’.
# [10] = biological target: T2, ArgC; experiment: X-ray crystallography of ArgC soaked with fragments (binding site); conditions: crystal soaking
# Procedure: ArgC crystals grown in pH 5.5 were first soaked in 1.5 µL drops containing the mother liquor and 5 mM NADP^+ for 2 h in hanging drops that were equilibrated against a reservoir of 500 µL. Thereafter, the crystals were transferred to drops containing the crystallisation condition and an SPR-validated fragments (20 mM, 10% DMSO), which were equilibrated against 500 µL of mother liquor also containing a corresponding percentage of DMSO overnight at 19 °C. ArgC crystals grown in pH 7 were soaked with 5 mM NADP^+ only for 5–10 min due to the rapid development of cracks, and transferred to the fragment soaking drops for 5–10 min from where they were fished and frozen.
# X-ray diffraction data (single-wavelength anomalous diffraction) were collected on beamlines i02, i03, i04, i04-1 and i24 at the Diamond Light Source (DLS), UK and on id30B at The European Synchrotron Radiation Facility (ESRF). Diffraction data were processed and reduced with autoPROC from Global Phasing Limited or Xia2 [31]. The apo-form of ArgB was crystallised in the R3_2 space group with one protomer per asymmetric unit (ASU) and the ArgB:NAG complex in the P6_3 space group with two protomers per ASU. ArgF was crystallized in the P2_1 space group with 6 protomers in the ASU. ArgC was crystallised in C2 and P2_1 space groups, with 2 and 4/8 protomers per ASU respectively. ArgD was crystallised in the P2_1 space group as well but with 4 protomers in the ASU.
# Initial phases were determined with PHASER [32] from PHENIX software package using the M. tuberculosis ArgB structure (PDB: 2AP9), M. tuberculosis ArgF structure (PDB: 2P2G), M. tuberculosis ArgC structure (PDB: 2I3G) and E. coli Succinyl-ornithine transaminase (AstC, 42% sequence identity, PDB: 4ADB) as a search models, respectively for ArgB, ArgF, ArgC and ArgD. Model building was done with Coot, and refinement was performed in PHENIX [33], [35] for ArgB, ArgF, and ArgC. For ArgD, after the initial molecular replacement solution and a single cycle of refinement, PHENIX AutoBuild was used to generate a model for M. tuberculosis ArgD that was then refined with Coot and PHENIX. Structure validation was performed using Coot and PHENIX tools, [34]. All figures were prepared with PyMOL (The PyMOL Molecular Graphics System, Version 2.0 Schrodinger, LLC).
# [11] = biological target: T2, ArgC; experiment: ArgC enzymatic assay (NADPH oxidation at 340 nm); type: biochemical; conditions: 2 mM fragment, 3.5 μM ArgC, 2.5% DMSO
# Procedure: To synthesise the ArgC substrate, a reaction mixture containing 3 μM ArgB, 1 mM NAG and 1 mM ATP in 50 mM Tris-HCl pH 7.5, 100 mM NaCl and 40 mM MgCl2 was made and the reaction was allowed to proceed for 1–1.5 h at room temperature. Thereafter, 100 μL of the ArgC reaction mixture consisting of 50 mM Tris-HCl pH 7.5, 100 mM NaCl and 0.6 mM NADPH (concentration in 200 μL), was added to each well together with 100 μL of the ArgB reaction mixture and followed for 30 min at 35 °C by measuring the oxidation of NADPH at 340 nm. Controls with only NADPH, 2.5% DMSO (v/v) and no ArgC, as well as only NADPH, 4 mM fragment and no ArgC were prepared. Baseline ArgC activity was assayed with and without DMSO, the effect of 2.5% and 5% DMSO on enzymatic activity was also tested. […] All conditions were prepared in triplicates. 3.5 μM ArgC was added just before measurements were started.
# [12] = biological target: ArgD (Mycobacterium tuberculosis, UniProt P9WPZ7); experiment: Differential scanning fluorimetry (DSF) against ArgD; type: binding
# Chain of ArgD (P9WPZ7 whole entry, the tested form may be a part): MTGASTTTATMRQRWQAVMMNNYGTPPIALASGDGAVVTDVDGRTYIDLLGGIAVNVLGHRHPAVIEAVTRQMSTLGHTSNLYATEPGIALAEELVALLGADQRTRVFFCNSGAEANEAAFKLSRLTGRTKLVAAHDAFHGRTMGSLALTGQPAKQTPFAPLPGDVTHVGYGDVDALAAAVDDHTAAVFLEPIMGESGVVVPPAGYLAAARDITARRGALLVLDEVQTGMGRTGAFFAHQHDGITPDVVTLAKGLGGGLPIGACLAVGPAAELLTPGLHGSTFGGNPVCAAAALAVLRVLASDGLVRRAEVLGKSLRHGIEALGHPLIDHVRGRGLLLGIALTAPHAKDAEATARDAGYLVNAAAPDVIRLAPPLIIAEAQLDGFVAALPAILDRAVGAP
# [13] = fragments at 1 mM, adjusted for molecular weight
smiles,measurement,setting,value
Nc1ncnc2c1ncn2[C@@H]1O[C@H](COP(=O)(O)OP(=O)(O)OP(=O)(O)O)[C@@H](O)[C@H]1O [ATP],DSF ΔTm,[1],+2.0 °C
N=C(N)NCCC[C@H](N)C(=O)O [L-arginine],Kd,[2]; 1st value,4.5 µM
same,Kd,[2]; 2nd value,4.8 µM
same,Kd,[2]; 3rd value,6.1 µM
same,Kd,[2]; 4th value,9.4 µM
same,Kd,[2]; 5th value,12.9 µM
same,Kd,[2]; 6th value,42 µM
same,ΔTm at 1000 µM,[1],11.8 °C
same,IC50,[3],146 ± 1 µM
"NC(N)=NOCC[C@H](N)C(=O)O [L-canavanine, reference compound]",MIC,"[4]; Mycobacterium tuberculosis, media without arginine",50 µg/mL
same,Inhibitory activity on growth with arginine present,[4]; arginine (1 mM) in the media,no inhibitory activity
same,Kd,[2]; 1st value,4.5 µM
same,Kd,[2]; 2nd value,4.8 µM
same,Kd,[2]; 3rd value,6.4 µM
same,Kd,[2]; 4th value,34 µM
same,Kd,[2]; 5th value,35 µM
same,Kd,[2]; 6th value,137 µM
same,ΔTm at 1000 µM,[1],7.2 °C
same,Inhibitory activity on growth with arginine present,[5],no inhibitory activity
same,MIC,[5]; Mycobacterium tuberculosis,50 µg/mL
same,IC50,[3],1460 ± 2 µM
same,MIC,[6],> 200 µg/mL
"NC(=O)NCCC[C@H](N)C(=O)O [L-citruline, L-citrulline, reference compound]",ΔTm at 1000 µM,[7]; read-out: DSF ΔTm,1 °C
"NCCC[C@H](N)C(=O)O [L-ornithine, reference compound]",DSF ΔTm,[7],1.5 °C
"NC(=O)c1ccc[n+]([C@@H]2O[C@H](COP(=O)([O-])OP(=O)(O)OC[C@H]3O[C@@H](n4cnc5c(N)ncnc54)[C@H](OP(=O)(O)O)[C@@H]3O)[C@@H](O)[C@H]2O)c1 [NADP, reference compound]",DSF ΔTm,[8],+0.6 °C
same,DSF ΔTm,[8]; listed as NADP^+,~ 0.6 °C
same,SPR Binding Response,[9]; 1.25 mM,19.5 (1.25 mM) RU
same,Binding site (X-ray),[10],Co-factor
"NC(=O)C1=CN([C@@H]2O[C@H](COP(=O)(O)OP(=O)(O)OC[C@H]3O[C@@H](n4cnc5c(N)ncnc54)[C@H](OP(=O)(O)O)[C@@H]3O)[C@@H](O)[C@H]2O)C=CC1 [NADPH, reference compound]",DSF ΔTm,[8],−0.9 °C
same,SPR Binding Response,[9]; 1.25 mM,16.3 (1.25 mM) RU
same,Binding site (X-ray),[10],Co-factor
"CC(=O)N[C@@H](CCC(=O)O)C(=O)O [NAG, N-acetyl-L-glutamic acid]",ΔTm at 1000 µM,[1],8.6 °C
"COc1ccc2[nH]cc(CC(=O)O)c2c1 [NMR322, 5-Methoxy-3-indoleacetic acid]",ΔTm at 5000 µM,[8],3.1 °C
same,SPR Binding Response,[9]; [13],80.5 RU
same,Binding site (X-ray),[10],Substrate
same,inhibition at 2000 µM,[11],45%
"Nc1ccc(Oc2ccccc2)nc1 [NMR401, 6-phenoxy-3-pyridinamine]",ΔTm at 5000 µM,[8],4.8 °C
same,SPR Binding Response,[9]; [13],36.7 RU
same,Binding site (X-ray),[10],Co-factor
same,inhibition at 2000 µM,[11],10%
"O=C(O)C1c2ccccc2Oc2ccccc21 [NMR571, Xanthene-9-carboxylic acid]",ΔTm at 5000 µM,[8],3.1 °C
same,SPR Binding Response,[9]; [13],78.0 RU
same,Binding site (X-ray),[10],Substrate
same,inhibition at 2000 µM,[11],37%
"COc1ccc2oc(C(=O)O)nc2c1 [NMR863, 5-methoxy-1,3-benzoxazole-2-carboxylic acid]",ΔTm at 5000 µM,[8],5 °C
same,SPR Binding Response,[9]; [13],41.6 RU
same,Binding site (X-ray),[10],Co-factor
same,inhibition at 2000 µM,[11],12%
"Cc1ncc(COP(=O)(O)O)c(C=O)c1O [PLP, pyridoxal-5′-phosphate]",Melting temperature of ArgD after addition of PLP,[12],79 °C
same,ΔTm at 1000 µM,"[12]; PLP (1 mM), PLP-unsaturated ArgD",13 °C
same,Melting temperature of ArgD after addition of PLP,[12]; PLP-unsaturated ArgD + 1 mM PLP,77.5 °C
